Key:
Format in all cases: in vivo
[1] = test system: ryegrass, Italian (Italian ryegrass, Lolium multiflorum); experiment: Test A preemergence; conditions: Preemergence; for Plant response rating, Ryegrass, Italian: 125 g ai/ha, visual injury after approximately 10 d, 0 to 100 scale where 0 is no effect and 100 is complete control; for Ryegrass, Italian plant response rating (0 to 100 scale, 0 is no effect, 100 is complete control): 500 g ai/ha, visual injury approx. 10 d
From the text: (§1) Seeds of plant species selected from barnyardgrass (Echinochloa crus-galli), Kochia (Kochia scoparia), ragweed (common ragweed, Ambrosia elatior), ryegrass, Italian (Italian ryegrass, Lolium multiflorum), crabgrass, large (Digitaria sanguinalis), giant foxtail (Setaria faberii), green foxtail (Setaria viridis), morningglory (Ipomoea spp.), pigweed (Amaranthus retroflexus), velvetleaf (Abutilon theophrasti), wheat (Triticum aestivum), and corn (Zea mays) were planted into a blend of loam soil and sand and treated preemergence with a directed soil spray using test chemicals formulated in anon-phytotoxic solvent mixture which included a surfactant.
(§2) At the same time, plants selected from these crop and weed species and also blackgrass (Alopecurus myosuroides), and Galium (catchweed bedstraw, Galium aparine) were planted in pots containing the same blend of loam soil and sand and treated with postemergence applications of test chemicals formulated in the same manner. Plants ranged in height from 2 to 10 cm and were in the one- to two-leaf stage for the postemergence treatment. Treated plants and untreated controls were maintained in a greenhouse for approximately 10 d, after which time all treated plants were compared to untreated controls and visually evaluated for injury. Plant response ratings, summarized in Table A, are based on a 0 to 100 scale where 0 is no effect and 100 is complete control. A dash (-) response means no test result.

[2] = test system: barnyardgrass (Echinochloa crus-galli); experiment: Test A preemergence; conditions: Preemergence; for Plant response rating, Barnyardgrass: 125 g ai/ha, visual injury after approximately 10 d, 0 to 100 scale where 0 is no effect and 100 is complete control; for Barnyardgrass plant response rating (0 to 100 scale, 0 is no effect, 100 is complete control): 500 g ai/ha, visual injury approx. 10 d
From the text: as §1, §2

Kochia (Kochia scoparia) [3] = experiment: Test A preemergence; conditions: Preemergence; for Plant response rating, Kochia: 125 g ai/ha, visual injury after approximately 10 d, 0 to 100 scale where 0 is no effect and 100 is complete control; for Kochia plant response rating (0 to 100 scale, 0 is no effect, 100 is complete control): 500 g ai/ha, visual injury approx. 10 d
From the text: as §1, §2

[4] = test system: ragweed (common ragweed, Ambrosia elatior); experiment: Test A preemergence; conditions: Preemergence; for Plant response rating, Ragweed: 125 g ai/ha, visual injury after approximately 10 d, 0 to 100 scale where 0 is no effect and 100 is complete control; for Ragweed plant response rating (0 to 100 scale, 0 is no effect, 100 is complete control): 500 g ai/ha, visual injury approx. 10 d
From the text: as §1, §2

[5] = test system: pigweed (Amaranthus retroflexus); experiment: Test A preemergence; conditions: Preemergence; for Plant response rating, Pigweed: 125 g ai/ha, visual injury after approximately 10 d, 0 to 100 scale where 0 is no effect and 100 is complete control; for Pigweed plant response rating (0 to 100 scale, 0 is no effect, 100 is complete control): 500 g ai/ha, visual injury approx. 10 d
From the text: as §1, §2

[6] = test system: giant foxtail (Setaria faberii); experiment: Test A preemergence; conditions: Preemergence; for Plant response rating, Foxtail, Giant: 125 g ai/ha, visual injury after approximately 10 d, 0 to 100 scale where 0 is no effect and 100 is complete control; for Foxtail, Giant plant response rating (0 to 100 scale, 0 is no effect, 100 is complete control): 500 g ai/ha, visual injury approx. 10 d
From the text: as §1, §2

corn (Zea mays) = experiment: Test A postemergence; conditions: for Corn plant response rating: 125 g ai/ha, postemergence, visual injury rating on 0 to 100 scale (0 no effect, 100 complete control), approx. 10 d; for Plant response rating, Corn: Postemergence, 500 g ai/ha, 0 to 100 scale where 0 is no effect and 100 is complete control
From the text: as §1, §2

[7] = test system: blackgrass (Alopecurus myosuroides); experiment: Test A postemergence; conditions: for Blackgrass plant response rating: 125 g ai/ha, postemergence, visual injury rating on 0 to 100 scale (0 no effect, 100 complete control), approx. 10 d; for Plant response rating, Blackgrass: Postemergence, 500 g ai/ha, 0 to 100 scale where 0 is no effect and 100 is complete control
From the text: as §1, §2

[8] = test system: ryegrass, Italian (Italian ryegrass, Lolium multiflorum); experiment: Test A postemergence; conditions: for Ryegrass, Italian plant response rating: 125 g ai/ha, postemergence, visual injury rating on 0 to 100 scale (0 no effect, 100 complete control), approx. 10 d; for Plant response rating, Ryegrass, Italian: Postemergence, 500 g ai/ha, 0 to 100 scale where 0 is no effect and 100 is complete control
From the text: as §1, §2

[9] = test system: barnyardgrass (Echinochloa crus-galli); experiment: Test A postemergence; conditions: for Barnyardgrass plant response rating: 125 g ai/ha, postemergence, visual injury rating on 0 to 100 scale (0 no effect, 100 complete control), approx. 10 d; for Plant response rating, Barnyardgrass: Postemergence, 500 g ai/ha, 0 to 100 scale where 0 is no effect and 100 is complete control
From the text: as §1, §2

Kochia (Kochia scoparia) [10] = experiment: Test A postemergence; conditions: for Kochia plant response rating: 125 g ai/ha, postemergence, visual injury rating on 0 to 100 scale (0 no effect, 100 complete control), approx. 10 d; for Plant response rating, Kochia: Postemergence, 500 g ai/ha, 0 to 100 scale where 0 is no effect and 100 is complete control
From the text: as §1, §2

[11] = test system: Galium (catchweed bedstraw, Galium aparine); experiment: Test A postemergence; conditions: for Galium plant response rating: 125 g ai/ha, postemergence, visual injury rating on 0 to 100 scale (0 no effect, 100 complete control), approx. 10 d; for Plant response rating, Galium: Postemergence, 500 g ai/ha, 0 to 100 scale where 0 is no effect and 100 is complete control
From the text: as §1, §2

[12] = test system: wheat (Triticum aestivum); experiment: Test A postemergence; conditions: for Wheat plant response rating: 125 g ai/ha, postemergence, visual injury rating on 0 to 100 scale (0 no effect, 100 complete control), approx. 10 d; for Plant response rating, Wheat: Postemergence, 500 g ai/ha, 0 to 100 scale where 0 is no effect and 100 is complete control
From the text: as §1, §2

[13] = test system: ragweed (common ragweed, Ambrosia elatior); experiment: Test A postemergence; conditions: for Ragweed plant response rating: 125 g ai/ha, postemergence, visual injury rating on 0 to 100 scale (0 no effect, 100 complete control), approx. 10 d; for Plant response rating, Ragweed: Postemergence, 500 g ai/ha, 0 to 100 scale where 0 is no effect and 100 is complete control
From the text: as §1, §2

[14] = test system: pigweed (Amaranthus retroflexus); experiment: Test A postemergence; conditions: for Pigweed plant response rating: 125 g ai/ha, postemergence, visual injury rating on 0 to 100 scale (0 no effect, 100 complete control), approx. 10 d; for Plant response rating, Pigweed: Postemergence, 500 g ai/ha, 0 to 100 scale where 0 is no effect and 100 is complete control
From the text: as §1, §2

[15] = test system: giant foxtail (Setaria faberii); experiment: Test A postemergence; conditions: for Foxtail, Giant plant response rating: 125 g ai/ha, postemergence, visual injury rating on 0 to 100 scale (0 no effect, 100 complete control), approx. 10 d; for Plant response rating, Foxtail, Giant: Postemergence, 500 g ai/ha, 0 to 100 scale where 0 is no effect and 100 is complete control
From the text: as §1, §2

[16] = test system: sedge, umbrella (small-flower umbrella sedge, Cyperus difformis); experiment: Test B flooded paddy test; conditions: Flood, 250 g ai/ha; 0 to 100 scale where 0 is no effect and 100 is complete control; 13 to 15 d
How it was run: (§3)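 Percent control, visually estimated after 13–15 d in the greenhouse on a 0–100 basis, compares treated pots with untreated ones; compound was put into paddy water 3 cm above the soil when plants had two leaves.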

rice (Oryra sativa) = experiment: Test B flooded paddy test; conditions: Flood, 250 g ai/ha; 0 to 100 scale where 0 is no effect and 100 is complete control; 13 to 15 d
How it was run: as §3

[17] = test system: barnyardgrass (Echinochloa crus-galli); experiment: Test B flooded paddy test; conditions: Flood, 250 g ai/ha; 0 to 100 scale where 0 is no effect and 100 is complete control; 13 to 15 d
How it was run: as §3

[18] = test system: ducksalad (Heteranthera limosa); experiment: Test B flooded paddy test; conditions: Flood, 250 g ai/ha; 0 to 100 scale where 0 is no effect and 100 is complete control; 13 to 15 d
How it was run: as §3

SMILES	Plant response rating, Ryegrass, Italian [1]	Ryegrass, Italian plant response rating (0 to 100 scale, 0 is no effect, 100 is complete control) [1]	Plant response rating, Barnyardgrass [2]	Barnyardgrass plant response rating (0 to 100 scale, 0 is no effect, 100 is complete control) [2]	Plant response rating, Kochia (Kochia (Kochia scoparia) [3])	Kochia plant response rating (0 to 100 scale, 0 is no effect, 100 is complete control) (Kochia (Kochia scoparia) [3])	Plant response rating, Ragweed [4]	Ragweed plant response rating (0 to 100 scale, 0 is no effect, 100 is complete control) [4]	Plant response rating, Pigweed [5]	Pigweed plant response rating (0 to 100 scale, 0 is no effect, 100 is complete control) [5]	Plant response rating, Foxtail, Giant [6]	Foxtail, Giant plant response rating (0 to 100 scale, 0 is no effect, 100 is complete control) [6]	Corn plant response rating (corn (Zea mays))	Plant response rating, Corn (corn (Zea mays))	Blackgrass plant response rating [7]	Plant response rating, Blackgrass [7]	Ryegrass, Italian plant response rating [8]	Plant response rating, Ryegrass, Italian [8]	Barnyardgrass plant response rating [9]	Plant response rating, Barnyardgrass [9]	other results
O=C1NCC(c2c(F)cccc2F)C1C(=O)Nc1ccccc1F (racemic) [Compound 515]	0	0	0	0	0	0	0	0	0	0	0	70	0	0	0	0	0	0	0	20	Kochia plant response rating (Kochia (Kochia scoparia) [10]): 0; Plant response rating, Kochia (Kochia (Kochia scoparia) [10]): 0; Galium plant response rating [11]: 0; Plant response rating, Galium [11]: 0; Wheat plant response rating [12]: 0; Plant response rating, Wheat [12]: 0; Ragweed plant response rating [13]: 0; Plant response rating, Ragweed [13]: 0; Pigweed plant response rating [14]: 0; Plant response rating, Pigweed [14]: 0; Foxtail, Giant plant response rating [15]: 0; Plant response rating, Foxtail, Giant [15]: 0; Plant response rating, Sedge, Umbrella [16]: 0; Plant response rating, Rice (rice (Oryra sativa)): 0; Plant response rating, Barnyardgrass [17]: 0; Plant response rating, Ducksalad [18]: 0
O=C1NCC(c2ccc(F)cc2F)C1C(=O)Nc1ccc(F)cc1F (racemic) [Compound 518]	0	0	0	60	0	0	0	0	0	0	70	90	0	0	0	0	0	0	0	50	Kochia plant response rating (Kochia (Kochia scoparia) [10]): 0; Plant response rating, Kochia (Kochia (Kochia scoparia) [10]): 0; Galium plant response rating [11]: 0; Plant response rating, Galium [11]: 20; Wheat plant response rating [12]: 0; Plant response rating, Wheat [12]: 0; Ragweed plant response rating [13]: 0; Plant response rating, Ragweed [13]: 0; Pigweed plant response rating [14]: 0; Plant response rating, Pigweed [14]: 0; Foxtail, Giant plant response rating [15]: 20; Plant response rating, Foxtail, Giant [15]: 70; Plant response rating, Sedge, Umbrella [16]: 0; Plant response rating, Rice (rice (Oryra sativa)): 0; Plant response rating, Barnyardgrass [17]: 0; Plant response rating, Ducksalad [18]: 65

Reference: patent publication US12077503B2, “Substituted cyclic amides and their use as herbicides” (FMC CORPORATION, priority 2015, dated 2024)
